The text below walks through data of patent publication US20250074981A1, “COMBINATION THERAPY WITH DEXAMETHASONE AND TUMOR-SPECIFIC T CELL ENGAGING MULTI-SPECIFIC ANTIBODIES FOR TREATING CANCER” (MEMORIAL SLOAN-KETTERING CANCER CENTER, priority 2021, published 2025).

Like-named read-outs stand apart in the source and are kept apart here.

One data set relates to GD2(+) osteosarcoma PDX. Briefly: Bioluminescence imaging of Luc(+) GD2-EATs in GD2(+) osteosarcoma PDX. Type of data set: in vivo, mice. As to conditions: GD2-EATs plus HD dexamethasone. The method, then:
(§1) T cells isolated from peripheral blood were stimulated with Dynabeads™ Human T-Activator CD3/CD28 for 24 hours. T cells were transduced with retroviral constructs containing tdTomato and click beetle red luciferase in RetroNectin-coated 6-well plates in the presence of IL-2 (100 IU/ml) and protamine sulfate ([…]). Transduced T cells were cultured for 8 days before being used in animal experiments.
(§2) Mice were anesthetized and imaged after intravenous injection of 3 mg of D-luciferin (Gold Biotechnology, St. Louis, MO) on different days post T cell injection. Images were acquired using IVIS Spectrum CT In Vivo Imaging System (Caliper Life Sciences, Waltham, MA). Bioluminescence images were overlaid with photographs, and regions of interest (ROI) were drawn based on the location and contour of tumor using Living image 2.60 (Xenogen, Alameda, CA). The total counts of photons (photon/s) were obtained. Bioluminescence signals (total flux, photon/s) before T cell injection were used as baselines.

In the next data set the test system is M37 breast cancer PDX. Briefly: In vivo anti-tumor effect in M37 breast cancer PDX. As to conditions: low and intermediate dosage of dexamethasone; due to diarrhea from C. difficile infection. Also noted: species or system mice. The procedure:
Increasing dosage of dexamethasone was tested as a premedication administered i.p. before the i.v. injection of HER2×CD3-BsAb plus activated human T cells in mice xenografted s.c. with M37 breast cancer PDX using the schedule detailed in FIG. 9A. The three dosages of intraperitoneal dexamethasone were 2 mg/kg (Dex 2), 8 mg/kg (Dex 8) and 32 mg/kg (Dex 32) once a week×3 weeks.

The test system of another data set is neuroblastoma PDXs. Briefly: Flow cytometry of tumor infiltrating myeloid cells and lymphocytes in neuroblastoma PDXs. The note with it: day 10 post-treatment. The class given is in vivo, mice. From the text: (§3) For blood and tumor samples from mice, the following antibodies were purchased from Biolegend: anti-human CD45-APC (HI30), anti-human CD3-Percp/Cy5.5 (SK7), anti-human CD8-FITC, anti-human CD4-PE/Cy7, anti-mouse CD45-APC, anti-mouse CD45-Brilliant Violet 711™ (30-F11), anti-mouse CD11b-Brilliant Violet 570™ (M1/70), anti-mouse Ly6G-FITC, anti-mouse Ly6C-PerCP/Cy5.5, and anti-mouse F4/80-PE/Cy7. Statistical analysis
(§4) Flow cytometry analysis. For flow cytometry analyses of blood and tumor samples from mice, the following antibodies were purchased from Biolegend: anti-human CD45-APC (HI30), anti-human CD3-Percp/Cy5.5 (SK7), anti-human CD8-FITC, anti-human CD4-PE/Cy7, anti-mouse CD45-Brilliant Violet 711™ (30-F11), anti-mouse CD11b-Brilliant Violet 570™ (M1/70), anti-mouse Ly6G-FITC, anti-mouse Ly6C-PerCP/Cy5.5, and anti-mouse F4/80-PE.

The test system of data set [1] is osteosarcoma cell line 143B xenografts. The class given is in vivo, mice. As to conditions: day 60 post-treatment, agents added to GD2-EATs, vs GD2-EATs alone.
Excerpt: as §3, §4

Data set [2] has the same test system. The class given is in vivo, mice. As to conditions: agents added to GD2-EATs, vs GD2-EATs alone. The procedure: Immunohistochemistry (IHC) and immunofluorescence (IF) staining were performed at the MSK Molecular Cytology Core Facility using Discovery XT processor (Ventana Medical Systems, Oro Valley, AZ) as described by Xu H, et al., Cancer Immunol Res 3: 266-277 (2015), the entirety of which is incorporated herein by reference. Tumor samples were fixed and embedded in paraffin. Anti-human CD45, anti-human CD3, and anti-mouse CD68 antibodies were used, which was followed by biotinylated secondary antibody. The detection was performed using a DAB detection kit (Ventana Medical Systems, Oro Valley, AZ) or Alexa Fluor™ 488 or 568 Tyramide Reagent (Invitrogen, Carlsbad, CA). IHC images were captured from tumor sections using a Nikon ECLIPSE Ni-U microscope and NIS-Elements 4.0 imaging software. IF images were captured using Leica Inverted Confocal SP8 and processed with Imaris (Bitplane, Zurich, Switzerland). Antigen positive cells were counted with Qupath 0.1.2.
Immunohistochemistry and immunofluorescence staining. Immunohistochemistry (TIC) staining were performed at the MSK Molecular Cytology Core Facility using Discovery XT processor (Ventana Medical Systems). Tumor samples were fixed and embedded in paraffin. […] Antigen positive cells were counted with Qupath 0.1.2 or using positive pixel count analysis.

For data set [3], the system named is HER2(+) osteosarcoma PDXs, HGSOS. Briefly: Bioluminescence imaging of Luc(+) HER2-EATs in HER2(+) osteosarcoma PDX (HGSOS / HGSOC1). Type of data set: in vivo, mice. As to conditions: control HER2-EATs. The procedure: as §1, §2
T cell transduction. T cells isolated from peripheral blood were stimulated with Dynabeads™ Human T-Activator CD3/CD28 for 24 hours. T cells were transduced with retroviral constructs containing tdTomato and click beetle red luciferase in RetroNectin-coated 6-well plates in the presence of IL-2 (100 IU/ml) and protamine sulfate (4 μg/mL). […]

A further data set has as its system hVEGF. Put plainly: Serum VEGF levels by Quantikine ELISA, HGSOC1 ovarian cancer PDX mice. As to conditions: day 5 post-treatment, 48 hours after 2nd dose; with HER2-EATs. Type of data set: in vivo, human. The procedure: Concentration of VEGF serum levels were measured using a commercially available enzyme-linked immunosorbent assay (ELISA) kit (R&D Systems, Minneapolis, MN) according to the manufacturer's instruction. Briefly, serum samples and standards were incubated for 2 hours in a microplate pre-coated with human or murine anti-VEGF monoclonal antibodies. After washing three times, enzyme-linked anti-VEGF polyclonal antibodies were added. Unbound antibodies were removed by washing. […] All samples were run in triplicate, and a standard curve was established for each assay. The sensitivity of the assay was <9.0 pg/ml. Inter- and intra-assay variations were <10%.
Measurement of serum VEGF levels. Serum VEGF levels in murine plasma were measured using Quantikine enzyme-linked immunosorbent assay (ELISA) kit (R and D Systems Cat #DVE00, RRID:AB_2800364) according to the manufacturer's instruction. […] All samples were run in triplicate, and a standard curve was established for each assay.

In data set [4] the test system is TH1 cell cytokines (IL-2, IFN-γ, and TNF-α). Put plainly: TH1 cell cytokine levels after GD2-EATs with VEGF blockades, neuroblastoma PDX mice. As to conditions: 2 hours after the first dose of GD2-EATs; combination group. Type of data set: in vivo. The method, then: Cytokine release assays. EAT-induced human cytokine release was analyzed in vitro and in vivo. Human Th1 cell released cytokines were analyzed by LEGENDplex™ Human Th1 Panel (Biolegend, Cat #741035). Five T cell cytokines including IL-2, IL-6, IL-10, IFN-γ and TNF-α were analyzed using mouse serum after treatment with EATs with or without VEGF blockade.

Another data set relates to GD2(+) neuroblastoma PDX. Briefly: Bioluminescence imaging of Luc(+) GD2-EATs in GD2(+) neuroblastoma PDX. Type of data set: in vivo, mice. The procedure:
T cell transduction. T cells isolated from peripheral blood were stimulated with Dynabeads™ Human T-Activator CD3/CD28 for 24 hours. T cells were transduced with retroviral constructs containing tdTomato and click beetle red luciferase in RetroNectin-coated 6-well plates in the presence of IL-2 (100 IU/ml) and protamine sulfate (4 μg/mL). Transduced T cells were cultured for 8 days before being used in animal experiments.
Bioluminescence imaging. Mice were anesthetized and imaged after intravenous injection of 3 mg of D-luciferin (Gold Biotechnology) on different days post T cell injection. Images were acquired using IVIS Spectrum CT In vivo Imaging System (Caliper Life Sciences). Bioluminescence images were overlaid with photographs, and regions of interest (ROI) were drawn based on the location and contour of tumor using Living image 2.60 (Xenogen). The total counts of photons (photon/s) were obtained. Bioluminescence signals (total flux, photon/s) before T cell injection were used as baselines.

The test system of data set [5] is neuroblastoma patient-derived xenografts. Put plainly: IHC positive pixel count analysis of CD3, CD4, CD8 T cells in neuroblastoma PDXs. The class given is in vivo, mice. The note with it: day 10 post-treatment; added to GD2-EATs. The method, then:
(§5) Immunohistochemistry and immunofluorescence staining. Immunohistochemistry (TIC) staining were performed at the MSK Molecular Cytology Core Facility using Discovery XT processor (Ventana Medical Systems). Tumor samples were fixed and embedded in paraffin. Anti-human CD45, anti-human CD3, anti-human CD4, anti-human CD8, anti-mouse CD31 antibodies were used, which was followed by biotinylated secondary antibody. The detection was performed using a DAB detection kit (Ventana Medical Systems) or Alexa Fluor™ 488 or 568 Tyramide Reagent (Invitrogen). IHC images were captured from tumor sections using a Nikon ECLIPSE Ni-U microscope and NIS-Elements 4.0 imaging software. Antigen positive cells were counted with Qupath 0.1.2 or using positive pixel count analysis.
(§6) Positive Pixel Count Analysis. IHC slides were scanned (Aperio ScanScope XT) and analyzed by comparing positive pixel counts (Aperio Technologies). For analyzing tumor infiltrating lymphocytes, the largest area of intact tumor tissue was included, and oblique sections were avoided. Each slide was visually inspected to ensure specificity and sensitivity of antibody staining. After positive pixel count analysis was run, analyzed slides were examined to confirm that positively identified pixels were consistent with lymphocyte staining and not background staining. Percentages were calculated as the total number of positive pixels divided by the total number of pixels (% positive pixels/total pixels).

The subject of data set [6] is red blood cell, leukocyte, or platelet counts. Briefly: Complete blood count after GD2-EATs with VEGF blockades, neuroblastoma PDX mice. Type of data set: in vivo. As to conditions: GD2-EATs following bevacizumab or DC101. The procedure:
To test if VEGF blockades affected complete blood cell counts (CBC) or frequencies of tumor infiltrating myeloid cells (TIMs), CBC and flow cytometry analysis of tumors were done after the first and third doses of GD2-EATs following bevacizumab or DC101. […] The effect on TIMs was also analyzed using flow cytometry of tumors. […] TIM analysis in a second tumor model was repeated using 143B CDXs where blood and tumors were analyzed on day 5 and day 60 post treatment, respectively.

The test system of another data set is tumor microvasculature. Put plainly: IHC of intratumoral blood vessels (mCD31) and HIF-1α in neuroblastoma PDXs. Type of data set: in vivo, mice. The procedure:
as §5
as §6, with “Each slide was visually inspected to ensure specificity and sensitivity of antibody staining.” left out

Data set [7] relates to osteosarcoma cell line 143B xenografts. Put plainly: In vivo anti-tumor effect against osteosarcoma cell line 143B xenografts.
Protocol: All animal procedures were performed in compliance with Memorial Sloan Kettering Cancer Center's institutional Animal Care and Use Committee (IACUC) guidelines. BALB/c Rag2^−/−IL-2Rγc^−/− (BRG) mice were used in this study. Target antigen (+) patient-derived xenograft (PDX) was established from fresh surgical specimens with MSKCC IRB approval. Tumor cells in Matrigel (Corning Corp, Corning, NY) were implanted subcutaneously on the right flank of each mouse. Tumor size was measured using handheld Peira TM900 imaging device (Piera, Brussels, BE). Tumor growth curves and overall survival was analyzed, and the overall survival was defined as the time from start of treatment to when tumor volume reached 2000 mm^3. To define the well-being of mice, CBC analyses, changes in body weight, behavior and physical appearance were monitored. All animal experiments were repeated twice more with different donor's T cells to ensure that the results were reliable.
In vivo anti-tumor effect was compared by area under curve (AUC) and survival curves, which were calculated. Differences between samples indicated in the figures were tested for statistical significance by two-tailed Student's t-test for two sets of data while one-way ANOVA with Tukey's post hoc test was used to among three or more sets of data. […]
Therapeutic study with mouse xenograft model All animal procedures were performed in compliance with Memorial Sloan Kettering Cancer Center's institutional Animal Care and Use Committee (IACUC) guidelines. […] Treatment was initiated after tumors were established, average tumor volume of 100 mm^3 when measured using TM900 scanner (Piera, Brussels, BE). […] Tumor growth curves and overall survival were analyzed, and the overall survival was defined as the time from start of treatment to when tumor volume reached 2000 mm^3. To define the well-being of mice, CBC analyses, changes in body weight, behavior and physical appearance were monitored. […]
Statistical analysis. […] Area under curves (AUCs) of tumor growth were calculated and compared among groups. […]
Setting [8] is: agent added to GD2-EATs, compared to GD2-EATs alone.

`C[C@@H]1C[C@H]2[C@@H]3CCC4=CC(=O)C=C[C@]4(C)[C@@]3(F)[C@@H](O)C[C@]2(C)[C@@]1(O)C(=O)CO` [dexamethasone]: the “mean signal intensity on day 5 vs GD2-EATs alone” value in the data set on GD2(+) osteosarcoma PDX is reported as “more than 10 times”. In addition, the weight loss result with M37 breast cancer PDX is recorded as “suffered weight loss around day 30 post treatment”.
As for “bevacizumab: anti-human VEGF (hVEGF) antibody bevacizumab”, in the data set with neuroblastoma PDXs, the “frequencies of intratumoral hCD45(+) T cells” value is listed as “much more pronounced”. Also, the “tumor infiltrating hCD45(+) and CD8(+) T cells (TILs)” value is “significantly increased” in data set [1]; “increased frequencies of tumor infiltrating hCD45(+) T cells and CD8(+) T cells” in [1] (listed as anti-VEGF). Further, the “CD3+ T cell infiltration / count in tumors (IHC)” value in [2] was “significantly increased”; in data set [2] (listed as anti-VEGF), “significantly increased T cell count”. Further, the “Fold increase in BLI (AUC-BLI)” value in data set [3] turned out to be 7.5; in the data set with GD2(+) neuroblastoma PDX (neuroblastoma PDX, control GD2-EATs), 2.8. Besides, the “serum h-VEGF levels” value in the data set with hVEGF was “significantly reduced serum h-VEGF levels”. Also, the “TH1 cell cytokines (IL-2, IFN-γ, and TNF-α)” value in [4] is “significantly lower”. Also, in the data set on GD2(+) neuroblastoma PDX (added to GD2-EATs), the TIL persistence entry is listed as “significantly prolonging TIL persistence”. The “CD4(+) TIL increase compared to GD2-EATs alone” value in data set [5] is 1.1 fold. The “CD8(+) TIL increase compared to GD2-EATs alone” value in data set [5] is 5 fold. Moreover, the “increase of CD3(+) TILs compared to GD2-EATs alone” value in [5] was found to be 3 fold. In addition, the “red blood cell, leukocyte, or platelet counts” value in data set [6] is reported as “no significant changes”. The “high endothelial venules (HEVs) in tumors” value with tumor microvasculature (combined with GD2-EATs) is “induced high endothelial venules (HEVs) in tumors”. Moreover, the “mCD31(+) blood vessels” value with tumor microvasculature (day 10 post-treatment) is “significant increase in mCD31(+) blood vessels”. In [7] (VEGF blockade with unarmed T cells), the anti-tumor effect entry is listed as “did not show any anti-tumor effect”. For the same compound, the survival entry in data set [7] (setting [8]) was “prolonging mouse survival”. Besides, in data set [7] (setting [8]), the “tumor control / anti-tumor response” value was “significantly improved”.
